# Test results as given in ChEMBL document CHEMBL1909046, “DrugMatrix in vitro pharmacology data”.
# Tests used:
# [1] = target: Matrix metalloproteinase-9 (Homo sapiens, UniProt P14780); assay type: cell-based;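 further: inhibition of isolated MMP-9 enzyme activity toward a synthetic peptide substrate, from the DrugMatrix protease screening panel; in other assays of this panel Not Active means under 50% inhibition at 10 µM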
# Adenosine receptor A1 = target: T1, Adenosine receptor A1 (Homo sapiens, UniProt P30542); assay type: cell membranes, CHO, Membrane; conditions: cho;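 further: radioligand binding assay at the adenosine A1 receptor, with DPCPX serving as the labelled ligand; in other assays of this panel Not Active means under 50% inhibition at 10 µM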
# T1 sequence (P30542 whole entry): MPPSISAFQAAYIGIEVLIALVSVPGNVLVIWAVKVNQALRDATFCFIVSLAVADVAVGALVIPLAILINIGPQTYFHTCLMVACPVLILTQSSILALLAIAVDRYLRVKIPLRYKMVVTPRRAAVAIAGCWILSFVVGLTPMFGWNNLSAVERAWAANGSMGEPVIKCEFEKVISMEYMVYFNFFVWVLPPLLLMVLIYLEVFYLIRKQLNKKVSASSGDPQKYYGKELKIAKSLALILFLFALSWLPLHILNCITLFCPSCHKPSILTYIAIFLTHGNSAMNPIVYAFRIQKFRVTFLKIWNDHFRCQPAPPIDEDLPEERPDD
# [2] = target: 5-hydroxytryptamine receptor 4 (Cavia porcellus, UniProt O70528); assay type: cell membranes, Dunkin-Hartley, Striatum, Membrane; further: in other assays of this panel Not Active means under 50% inhibition at 10 µM
# 5-hydroxytryptamine receptor 4, sequence (O70528 whole entry): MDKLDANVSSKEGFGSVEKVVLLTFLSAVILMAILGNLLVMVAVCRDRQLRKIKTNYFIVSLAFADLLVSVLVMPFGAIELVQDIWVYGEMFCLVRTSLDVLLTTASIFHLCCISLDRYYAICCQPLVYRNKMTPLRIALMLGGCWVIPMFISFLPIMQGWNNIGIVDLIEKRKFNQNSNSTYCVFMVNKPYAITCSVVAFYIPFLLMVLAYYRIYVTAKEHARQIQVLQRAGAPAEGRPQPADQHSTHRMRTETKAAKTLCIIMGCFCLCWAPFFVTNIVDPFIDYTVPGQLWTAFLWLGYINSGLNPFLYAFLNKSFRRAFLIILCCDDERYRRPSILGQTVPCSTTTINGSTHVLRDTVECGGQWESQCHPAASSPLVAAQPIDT
# [3] = target: Vascular endothelial growth factor receptor 1 (Homo sapiens, UniProt P17948); assay type: cell-based; conditions: huvec; further: in other assays of this panel Not Active means under 50% inhibition at 10 µM
# Vascular endothelial growth factor receptor 1, sequence (P17948 whole entry): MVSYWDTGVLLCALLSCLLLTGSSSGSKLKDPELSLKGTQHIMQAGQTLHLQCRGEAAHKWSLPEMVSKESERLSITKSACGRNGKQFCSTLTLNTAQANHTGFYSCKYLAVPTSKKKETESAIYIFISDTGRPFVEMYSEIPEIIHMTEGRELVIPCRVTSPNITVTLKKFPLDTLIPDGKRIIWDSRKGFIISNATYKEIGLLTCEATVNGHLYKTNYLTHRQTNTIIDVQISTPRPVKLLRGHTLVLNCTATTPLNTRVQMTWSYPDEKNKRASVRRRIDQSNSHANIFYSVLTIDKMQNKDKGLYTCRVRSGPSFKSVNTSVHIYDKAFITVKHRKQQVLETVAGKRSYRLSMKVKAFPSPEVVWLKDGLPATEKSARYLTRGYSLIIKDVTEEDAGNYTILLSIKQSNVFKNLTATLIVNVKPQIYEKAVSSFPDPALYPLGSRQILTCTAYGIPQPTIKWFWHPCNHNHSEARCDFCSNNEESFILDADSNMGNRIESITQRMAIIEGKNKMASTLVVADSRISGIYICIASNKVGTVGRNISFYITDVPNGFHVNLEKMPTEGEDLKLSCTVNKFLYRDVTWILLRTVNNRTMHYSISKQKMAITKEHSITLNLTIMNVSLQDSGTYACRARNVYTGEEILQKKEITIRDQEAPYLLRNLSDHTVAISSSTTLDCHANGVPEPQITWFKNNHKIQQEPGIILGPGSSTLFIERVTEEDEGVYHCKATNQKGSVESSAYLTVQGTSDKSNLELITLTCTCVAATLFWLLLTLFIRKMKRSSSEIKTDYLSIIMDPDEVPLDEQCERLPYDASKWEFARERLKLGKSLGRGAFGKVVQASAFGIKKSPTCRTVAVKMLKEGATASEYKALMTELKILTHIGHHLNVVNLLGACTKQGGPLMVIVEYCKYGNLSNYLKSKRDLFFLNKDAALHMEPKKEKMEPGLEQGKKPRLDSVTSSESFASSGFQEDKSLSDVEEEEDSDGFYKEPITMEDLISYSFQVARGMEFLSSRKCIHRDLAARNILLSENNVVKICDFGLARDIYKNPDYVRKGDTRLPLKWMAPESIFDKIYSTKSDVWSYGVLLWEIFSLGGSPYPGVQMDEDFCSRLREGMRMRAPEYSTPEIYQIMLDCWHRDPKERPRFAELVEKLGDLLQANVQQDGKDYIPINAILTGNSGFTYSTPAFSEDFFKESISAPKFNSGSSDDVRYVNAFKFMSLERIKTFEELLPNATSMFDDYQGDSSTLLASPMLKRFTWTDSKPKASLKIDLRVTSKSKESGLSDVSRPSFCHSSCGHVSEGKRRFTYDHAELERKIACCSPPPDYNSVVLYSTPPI
# Calcitonin receptor = target: T2, Calcitonin receptor (Homo sapiens, UniProt P30988); assay type: cell membranes, Membrane; conditions: t47d; further: in other assays of this panel Not Active means under 50% inhibition at 10 µM
# T2 sequence (P30988 whole entry): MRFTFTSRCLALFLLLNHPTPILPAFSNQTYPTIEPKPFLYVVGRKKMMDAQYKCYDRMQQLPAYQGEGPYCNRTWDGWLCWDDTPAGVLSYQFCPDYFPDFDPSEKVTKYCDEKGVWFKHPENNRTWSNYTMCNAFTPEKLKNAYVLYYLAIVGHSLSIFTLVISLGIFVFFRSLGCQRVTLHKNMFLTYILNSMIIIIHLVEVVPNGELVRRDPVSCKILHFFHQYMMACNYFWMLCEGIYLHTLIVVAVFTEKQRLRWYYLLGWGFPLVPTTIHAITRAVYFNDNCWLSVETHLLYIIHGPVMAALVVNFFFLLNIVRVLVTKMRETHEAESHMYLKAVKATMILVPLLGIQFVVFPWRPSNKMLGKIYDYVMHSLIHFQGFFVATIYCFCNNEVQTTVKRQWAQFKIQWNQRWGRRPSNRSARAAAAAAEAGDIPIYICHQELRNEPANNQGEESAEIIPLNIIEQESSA
# [4] = target: T3, Vasoactive intestinal polypeptide receptor 1 (Homo sapiens, UniProt P32241); assay type: cell membranes, Membrane; conditions: ht-29; further: in other assays of this panel Not Active means under 50% inhibition at 10 µM
# T3 sequence (P32241 whole entry): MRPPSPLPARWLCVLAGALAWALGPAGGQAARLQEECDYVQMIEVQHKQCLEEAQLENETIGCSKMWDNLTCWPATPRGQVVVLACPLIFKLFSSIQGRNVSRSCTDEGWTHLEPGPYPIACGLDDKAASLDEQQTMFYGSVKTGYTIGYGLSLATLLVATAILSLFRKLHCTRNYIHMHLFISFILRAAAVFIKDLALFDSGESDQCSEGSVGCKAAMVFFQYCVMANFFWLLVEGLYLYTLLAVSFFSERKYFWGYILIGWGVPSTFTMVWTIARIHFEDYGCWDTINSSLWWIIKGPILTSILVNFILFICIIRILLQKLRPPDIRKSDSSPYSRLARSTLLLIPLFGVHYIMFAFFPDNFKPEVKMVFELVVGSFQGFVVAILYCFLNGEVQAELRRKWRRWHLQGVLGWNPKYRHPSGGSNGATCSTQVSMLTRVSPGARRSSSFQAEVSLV
# Leukotriene C4 synthase = target: T4, Leukotriene C4 synthase (Cavia porcellus, UniProt A6XA80); assay: biochemical; assay type: tissue-based, Lung
# T4 sequence (A6XA80 whole entry): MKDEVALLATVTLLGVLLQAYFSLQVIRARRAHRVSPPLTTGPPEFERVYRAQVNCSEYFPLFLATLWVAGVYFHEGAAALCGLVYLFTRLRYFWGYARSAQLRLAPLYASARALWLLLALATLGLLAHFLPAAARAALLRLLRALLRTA
# [5] = target: 5-hydroxytryptamine receptor 6 (Homo sapiens, UniProt P50406); assay type: cell membranes, HeLa, Membrane; further: in other assays of this panel Not Active means under 50% inhibition at 10 µM
# 5-hydroxytryptamine receptor 6, sequence (P50406 whole entry): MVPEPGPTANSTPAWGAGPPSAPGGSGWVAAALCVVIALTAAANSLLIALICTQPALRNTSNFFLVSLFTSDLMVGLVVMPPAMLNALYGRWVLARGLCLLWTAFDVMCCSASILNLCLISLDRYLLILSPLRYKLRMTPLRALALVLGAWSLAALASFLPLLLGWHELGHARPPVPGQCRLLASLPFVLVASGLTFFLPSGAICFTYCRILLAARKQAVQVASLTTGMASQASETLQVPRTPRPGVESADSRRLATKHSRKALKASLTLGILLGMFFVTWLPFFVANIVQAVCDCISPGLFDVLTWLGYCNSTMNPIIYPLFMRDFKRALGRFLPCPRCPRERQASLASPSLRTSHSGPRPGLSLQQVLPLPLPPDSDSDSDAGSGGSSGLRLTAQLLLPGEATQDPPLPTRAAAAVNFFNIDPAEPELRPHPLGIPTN
# [6] = DRUGMATRIX: Atrial Natriuretic Factor (ANF) radioligand binding (ligand: [125I] ANF (rat)); assay type: cell membranes, Cavia porcellus, Dunkin-Hartley, Adrenal gland, Membrane; conditions: Not Active = under 50% inhibition at 10 µM
# [7] = target: T5, C-X-C chemokine receptor type 2 (Homo sapiens, UniProt P25025); assay type: cell membranes, Membrane; conditions: cho-k1; further: in other assays of this panel Not Active means under 50% inhibition at 10 µM
# T5 sequence (P25025 whole entry): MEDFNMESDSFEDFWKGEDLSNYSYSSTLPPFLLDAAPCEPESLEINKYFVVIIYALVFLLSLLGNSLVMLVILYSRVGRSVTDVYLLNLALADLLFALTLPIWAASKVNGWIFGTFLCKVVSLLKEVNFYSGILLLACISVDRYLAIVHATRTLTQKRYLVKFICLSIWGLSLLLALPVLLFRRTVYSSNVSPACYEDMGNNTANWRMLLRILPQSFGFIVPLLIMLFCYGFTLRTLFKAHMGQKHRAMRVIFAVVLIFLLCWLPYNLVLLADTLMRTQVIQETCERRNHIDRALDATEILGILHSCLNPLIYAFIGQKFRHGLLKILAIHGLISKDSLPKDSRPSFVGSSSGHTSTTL
# Thromboxane-A synthase = target: T6, Thromboxane-A synthase (Homo sapiens, UniProt P24557); assay: biochemical; assay type: tissue-based, Platelet
# T6 sequence (P24557 whole entry): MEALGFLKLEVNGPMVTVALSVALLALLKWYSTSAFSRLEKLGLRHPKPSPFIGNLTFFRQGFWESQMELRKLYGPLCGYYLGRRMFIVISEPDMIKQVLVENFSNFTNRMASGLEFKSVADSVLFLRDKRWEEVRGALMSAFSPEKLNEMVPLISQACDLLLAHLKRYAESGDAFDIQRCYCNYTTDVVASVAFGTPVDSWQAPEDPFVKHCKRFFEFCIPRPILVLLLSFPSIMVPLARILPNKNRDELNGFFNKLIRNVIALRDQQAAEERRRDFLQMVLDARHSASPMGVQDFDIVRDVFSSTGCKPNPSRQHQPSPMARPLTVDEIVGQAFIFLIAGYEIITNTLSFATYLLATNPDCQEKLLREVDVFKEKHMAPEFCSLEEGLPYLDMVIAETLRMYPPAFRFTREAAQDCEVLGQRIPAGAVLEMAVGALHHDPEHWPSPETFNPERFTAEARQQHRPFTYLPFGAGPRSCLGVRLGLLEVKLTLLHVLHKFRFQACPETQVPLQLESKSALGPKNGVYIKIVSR
# [8] = DRUGMATRIX: GABAA, Flunitrazepam, Central radioligand binding (ligand: [3H] Flunitrazepam); assay type: cell membranes, Rattus norvegicus, Wistar, Brain, Membrane; conditions: Not Active = under 50% inhibition at 10 µM
# Matrix metalloproteinase-9, sequence (P14780 whole entry): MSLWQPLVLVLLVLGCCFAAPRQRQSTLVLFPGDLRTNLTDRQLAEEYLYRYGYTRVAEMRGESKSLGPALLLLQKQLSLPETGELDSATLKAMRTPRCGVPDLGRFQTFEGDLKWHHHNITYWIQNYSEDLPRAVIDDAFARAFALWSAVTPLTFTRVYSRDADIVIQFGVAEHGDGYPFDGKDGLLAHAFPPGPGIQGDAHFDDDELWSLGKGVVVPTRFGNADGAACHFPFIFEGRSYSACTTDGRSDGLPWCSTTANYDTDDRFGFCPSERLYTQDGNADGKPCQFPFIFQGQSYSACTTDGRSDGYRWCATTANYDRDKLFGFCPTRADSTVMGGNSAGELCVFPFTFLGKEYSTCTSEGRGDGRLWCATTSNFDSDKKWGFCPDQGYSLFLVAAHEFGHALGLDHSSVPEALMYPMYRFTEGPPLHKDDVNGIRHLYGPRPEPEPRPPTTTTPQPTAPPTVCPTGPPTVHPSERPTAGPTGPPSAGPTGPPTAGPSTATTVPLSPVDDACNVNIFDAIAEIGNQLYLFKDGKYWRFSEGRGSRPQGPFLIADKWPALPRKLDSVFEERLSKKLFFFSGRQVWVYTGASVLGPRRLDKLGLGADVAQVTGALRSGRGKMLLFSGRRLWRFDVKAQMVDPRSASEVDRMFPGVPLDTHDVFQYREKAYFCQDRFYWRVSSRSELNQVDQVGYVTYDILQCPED
compound,measurement,setting,value
CC(C)NC[C@H](O)COc1cccc2[nH]ccc12,IC50,[1],Not Active
same,IC50,Adenosine receptor A1,Not Active
same,IC50,[2],Not Active
same,IC50,[3],Not Active
same,IC50,Calcitonin receptor,Not Active
same,IC50,[4],Not Active
same,IC50,Leukotriene C4 synthase,Not Active
same,IC50,[5]; hela,Not Active
same,IC50,[6],Not Active
same,Ki,[6],Not Active
same,IC50,[7],Not Active
same,IC50,Thromboxane-A synthase; platelet,Not Active
same,IC50,[8],Not Active
same,Ki,[8],Not Active
CCCSc1ccc2nc(NC(=O)OC)[nH]c2c1 [ALBENDAZOLE],IC50,[1],Not Active
same,IC50,Adenosine receptor A1,Not Active
same,IC50,[2],Not Active
same,IC50,[3],Not Active
same,IC50,Calcitonin receptor,Not Active
same,IC50,[4],Not Active
same,IC50,Leukotriene C4 synthase,Not Active
same,IC50,[5]; hela,Not Active
same,IC50,[6],Not Active
same,Ki,[6],Not Active
same,IC50,[7],Not Active
same,IC50,Thromboxane-A synthase; platelet,Not Active
same,IC50,[8],Not Active
same,Ki,[8],Not Active
CCCCOC(=O)c1ccc(N)cc1 [BUTAMBEN],IC50,[1],Not Active
same,IC50,Adenosine receptor A1,Not Active
same,IC50,[2],Not Active
same,IC50,[3],Not Active
same,IC50,Calcitonin receptor,Not Active
same,IC50,[4],Not Active
same,IC50,Leukotriene C4 synthase,Not Active
same,IC50,[5]; hela,Not Active
same,IC50,[6],Not Active
same,Ki,[6],Not Active
same,IC50,[7],Not Active
same,IC50,Thromboxane-A synthase; platelet,Not Active
same,IC50,[8],Not Active
same,Ki,[8],Not Active
O=C(O)c1cn(C2CC2)c2cc(N3CCNCC3)c(F)cc2c1=O [CIPROFLOXACIN],IC50,[1],Not Active
same,IC50,Adenosine receptor A1,Not Active
same,IC50,[2],Not Active
same,IC50,[3],Not Active
same,IC50,Calcitonin receptor,Not Active
same,IC50,[4],Not Active
same,IC50,Leukotriene C4 synthase,Not Active
same,IC50,[5]; hela,Not Active
same,IC50,[6],Not Active
same,Ki,[6],Not Active
same,IC50,[7],Not Active
same,IC50,Thromboxane-A synthase; platelet,Not Active
same,IC50,[8],Not Active
same,Ki,[8],Not Active
COC(=O)[C@H](c1ccccc1Cl)N1CCc2sccc2C1 [CLOPIDOGREL],IC50,[1],Not Active
same,IC50,Adenosine receptor A1,Not Active
same,IC50,[2],Not Active
same,IC50,[3],Not Active
same,IC50,Calcitonin receptor,Not Active
same,IC50,[4],Not Active
same,IC50,Leukotriene C4 synthase,Not Active
same,IC50,[5]; hela,Not Active
same,IC50,[6],Not Active
same,Ki,[6],Not Active
same,IC50,[7],Not Active
same,IC50,Thromboxane-A synthase; platelet,Not Active
same,IC50,[8],Not Active
same,Ki,[8],Not Active
COc1ccc([C@@H]2Sc3ccccc3N(CCN(C)C)C(=O)[C@@H]2OC(C)=O)cc1 [DILTIAZEM],IC50,[1],Not Active
same,IC50,Adenosine receptor A1,Not Active
same,IC50,[2],Not Active
same,IC50,[3],Not Active
same,IC50,Calcitonin receptor,Not Active
same,IC50,[4],Not Active
same,IC50,Leukotriene C4 synthase,Not Active
same,IC50,[5]; hela,Not Active
same,IC50,[6],Not Active
same,Ki,[6],Not Active
same,IC50,[7],Not Active
same,IC50,Thromboxane-A synthase; platelet,Not Active
same,IC50,[8],Not Active
same,Ki,[8],Not Active
CN1C[C@H](C(=O)N[C@]2(C)O[C@@]3(O)[C@@H]4CCCN4C(=O)[C@H](Cc4ccccc4)N3C2=O)C=C2c3cccc4[nH]cc(c34)C[C@H]21 [ERGOTAMINE],IC50,[1],Not Active
same,IC50,Adenosine receptor A1,Not Active
same,IC50,[2]; read-out: IC50,1580 nM
same,Ki,[2]; read-out: Ki,264 nM
same,IC50,[3],Not Active
same,IC50,Calcitonin receptor,Not Active
same,IC50,[4],Not Active
same,IC50,Leukotriene C4 synthase,Not Active
same,IC50,[5]; read-out: IC50,2.04 nM
same,Ki,[5]; read-out: Ki,0.948 nM
same,IC50,[6],Not Active
same,Ki,[6],Not Active
same,IC50,[7],Not Active
same,IC50,Thromboxane-A synthase; read-out: IC50,3060 nM
same,IC50,[8],Not Active
same,Ki,[8],Not Active
O=C1OCCN1/N=C/c1ccc([N+](=O)[O-])o1 [FURAZOLIDONE],IC50,[1],Not Active
same,IC50,Adenosine receptor A1,Not Active
same,IC50,[2],Not Active
same,IC50,[3],Not Active
same,IC50,Calcitonin receptor,Not Active
same,IC50,[4],Not Active
same,IC50,Leukotriene C4 synthase,Not Active
same,IC50,[5]; hela,Not Active
same,IC50,[6],Not Active
same,Ki,[6],Not Active
same,IC50,[7],Not Active
same,IC50,Thromboxane-A synthase; platelet,Not Active
same,IC50,[8],Not Active
same,Ki,[8],Not Active
NCC(=O)O [GLYCINE],IC50,[1],Not Active
same,IC50,Adenosine receptor A1,Not Active
same,IC50,[2],Not Active
same,IC50,[3],Not Active
same,IC50,Calcitonin receptor,Not Active
same,IC50,[4],Not Active
same,IC50,Leukotriene C4 synthase,Not Active
same,IC50,[5]; hela,Not Active
same,IC50,[6],Not Active
same,Ki,[6],Not Active
same,IC50,[7],Not Active
same,IC50,Thromboxane-A synthase; platelet,Not Active
same,IC50,[8],Not Active
same,Ki,[8],Not Active
O=P1(NCCCl)OCCCN1CCCl (configuration not stated) [IFOSFAMIDE],IC50,[1],Not Active
same,IC50,Adenosine receptor A1,Not Active
same,IC50,[2],Not Active
same,IC50,[3],Not Active
same,IC50,Calcitonin receptor,Not Active
same,IC50,[4],Not Active
same,IC50,Leukotriene C4 synthase,Not Active
same,IC50,[5]; hela,Not Active
same,IC50,[6],Not Active
same,Ki,[6],Not Active
same,IC50,[7],Not Active
same,IC50,Thromboxane-A synthase; platelet,Not Active
same,IC50,[8],Not Active
same,Ki,[8],Not Active
